Results: the supplement of paper PMC4862054

system: MFM-223; test: normalised response (% of control), CellTiter-Glo; higher = more viable cells (100 = DMSO, 0 = benzethonium chloride kill control); settings: incubation time: 72 h
Protocol: (§1)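 DSRT, 72 h incubation, CellTox Green / CellTiter-Glo readout. Signal is normalised to DMSO and benzethonium chloride controls. Value is the normalised response at dose 3.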

SMILES | normalised response [%]
Cc1c(Cn2c(C)nc3c(C(=O)O)cc(N4CCOCC4)cc32)cccc1C(F)(F)F (100 nM) | 108
CCCCC/C=C/C=C1/C(=O)C=C[C@@H]1C/C=C\CCCC(=O)O [15D-PGJ2] (8 nM) | 98.5
CC(=O)OC[C@H]1O[C@@H]([S-])[C@H](OC(C)=O)[C@@H](OC(C)=O)[C@@H]1OC(C)=O.CCP(CC)CC.[Au+] [Auranofin] (25 nM) | 97.8
Cc1c(CN2CCN(C(=O)[C@H](C)O)CC2)sc2c(N3CCOCC3)nc(-c3cnc(N)nc3)nc12 [GDC-0980] (100 nM) | 93.6
Cc1cccc(-c2nn3c(c2-c2ccnc4ccc(C(N)=O)cc24)CCC3)n1 [Galunisertib] (10 nM) | 106
O=C1c2c(O)ccc(O)c2C(=O)c2c(NCCNCCO)ccc(NCCNCCO)c21 [Mitoxantrone] (10 nM) | 94
COc1nc(N)nc2c1ncn2[C@@H]1O[C@H](CO)[C@@H](O)[C@@H]1O [Nelarabine] (100 nM) | 89
O=C(CCBr)N1CCN(C(=O)CCBr)CC1 [Pipobroman] (100 nM) | 103
CC(C)N(CCCNC(=O)Nc1ccc(C(C)(C)C)cc1)C[C@H]1O[C@@H](n2cc(Br)c3c(N)ncnc32)[C@H](O)[C@@H]1O [SGC0946] (100 nM) | 95.2

system: SK-BR-3; test: as above; settings: incubation time: 72 h
Protocol: as §1

SMILES | normalised response [%]
Cc1c(Cn2c(C)nc3c(C(=O)O)cc(N4CCOCC4)cc32)cccc1C(F)(F)F (100 nM) | 107
CCCCC/C=C/C=C1/C(=O)C=C[C@@H]1C/C=C\CCCC(=O)O [15D-PGJ2] (8 nM) | 99.4
CC(=O)OC[C@H]1O[C@@H]([S-])[C@H](OC(C)=O)[C@@H](OC(C)=O)[C@@H]1OC(C)=O.CCP(CC)CC.[Au+] [Auranofin] (25 nM) | 101
Cc1c(CN2CCN(C(=O)[C@H](C)O)CC2)sc2c(N3CCOCC3)nc(-c3cnc(N)nc3)nc12 [GDC-0980] (100 nM) | 72.5
Cc1cccc(-c2nn3c(c2-c2ccnc4ccc(C(N)=O)cc24)CCC3)n1 [Galunisertib] (10 nM) | 110
O=C1c2c(O)ccc(O)c2C(=O)c2c(NCCNCCO)ccc(NCCNCCO)c21 [Mitoxantrone] (10 nM) | 89.1
COc1nc(N)nc2c1ncn2[C@@H]1O[C@H](CO)[C@@H](O)[C@@H]1O [Nelarabine] (100 nM) | 77.8
O=C(CCBr)N1CCN(C(=O)CCBr)CC1 [Pipobroman] (100 nM) | 107
CC(C)N(CCCNC(=O)Nc1ccc(C(C)(C)C)cc1)C[C@H]1O[C@@H](n2cc(Br)c3c(N)ncnc32)[C@H](O)[C@@H]1O [SGC0946] (100 nM) | 90

system: MDA-MB-436; test: as above; settings: incubation time: 72 h
Protocol: as §1

SMILES | normalised response [%]
Cc1c(Cn2c(C)nc3c(C(=O)O)cc(N4CCOCC4)cc32)cccc1C(F)(F)F (100 nM) | 102
CCCCC/C=C/C=C1/C(=O)C=C[C@@H]1C/C=C\CCCC(=O)O [15D-PGJ2] (8 nM) | 101
CC(=O)OC[C@H]1O[C@@H]([S-])[C@H](OC(C)=O)[C@@H](OC(C)=O)[C@@H]1OC(C)=O.CCP(CC)CC.[Au+] [Auranofin] (25 nM) | 103
Cc1c(CN2CCN(C(=O)[C@H](C)O)CC2)sc2c(N3CCOCC3)nc(-c3cnc(N)nc3)nc12 [GDC-0980] (100 nM) | 92.5
Cc1cccc(-c2nn3c(c2-c2ccnc4ccc(C(N)=O)cc24)CCC3)n1 [Galunisertib] (10 nM) | 106
O=C1c2c(O)ccc(O)c2C(=O)c2c(NCCNCCO)ccc(NCCNCCO)c21 [Mitoxantrone] (10 nM) | 92.7
COc1nc(N)nc2c1ncn2[C@@H]1O[C@H](CO)[C@@H](O)[C@@H]1O [Nelarabine] (100 nM) | 94
O=C(CCBr)N1CCN(C(=O)CCBr)CC1 [Pipobroman] (100 nM) | 91.5
CC(C)N(CCCNC(=O)Nc1ccc(C(C)(C)C)cc1)C[C@H]1O[C@@H](n2cc(Br)c3c(N)ncnc32)[C@H](O)[C@@H]1O [SGC0946] (100 nM) | 99.4

system: CAL-148; test: as above; settings: incubation time: 72 h
Protocol: as §1

SMILES | normalised response [%]
Cc1c(Cn2c(C)nc3c(C(=O)O)cc(N4CCOCC4)cc32)cccc1C(F)(F)F (100 nM) | 111
CCCCC/C=C/C=C1/C(=O)C=C[C@@H]1C/C=C\CCCC(=O)O [15D-PGJ2] (8 nM) | 112
CC(=O)OC[C@H]1O[C@@H]([S-])[C@H](OC(C)=O)[C@@H](OC(C)=O)[C@@H]1OC(C)=O.CCP(CC)CC.[Au+] [Auranofin] (25 nM) | 111
Cc1c(CN2CCN(C(=O)[C@H](C)O)CC2)sc2c(N3CCOCC3)nc(-c3cnc(N)nc3)nc12 [GDC-0980] (100 nM) | 102
Cc1cccc(-c2nn3c(c2-c2ccnc4ccc(C(N)=O)cc24)CCC3)n1 [Galunisertib] (10 nM) | 112
O=C1c2c(O)ccc(O)c2C(=O)c2c(NCCNCCO)ccc(NCCNCCO)c21 [Mitoxantrone] (10 nM) | 98.6
COc1nc(N)nc2c1ncn2[C@@H]1O[C@H](CO)[C@@H](O)[C@@H]1O [Nelarabine] (100 nM) | 83.2
O=C(CCBr)N1CCN(C(=O)CCBr)CC1 [Pipobroman] (100 nM) | 105
CC(C)N(CCCNC(=O)Nc1ccc(C(C)(C)C)cc1)C[C@H]1O[C@@H](n2cc(Br)c3c(N)ncnc32)[C@H](O)[C@@H]1O [SGC0946] (100 nM) | 86.6

system: MCF-10A; test: as above; settings: incubation time: 72 h
Protocol: as §1

SMILES | normalised response [%]
Cc1c(Cn2c(C)nc3c(C(=O)O)cc(N4CCOCC4)cc32)cccc1C(F)(F)F (100 nM) | 111
CCCCC/C=C/C=C1/C(=O)C=C[C@@H]1C/C=C\CCCC(=O)O [15D-PGJ2] (8 nM) | 101
CC(=O)OC[C@H]1O[C@@H]([S-])[C@H](OC(C)=O)[C@@H](OC(C)=O)[C@@H]1OC(C)=O.CCP(CC)CC.[Au+] [Auranofin] (25 nM) | 104
Cc1c(CN2CCN(C(=O)[C@H](C)O)CC2)sc2c(N3CCOCC3)nc(-c3cnc(N)nc3)nc12 [GDC-0980] (100 nM) | 90.8
Cc1cccc(-c2nn3c(c2-c2ccnc4ccc(C(N)=O)cc24)CCC3)n1 [Galunisertib] (10 nM) | 111
O=C1c2c(O)ccc(O)c2C(=O)c2c(NCCNCCO)ccc(NCCNCCO)c21 [Mitoxantrone] (10 nM) | 96.2
COc1nc(N)nc2c1ncn2[C@@H]1O[C@H](CO)[C@@H](O)[C@@H]1O [Nelarabine] (100 nM) | 84.9
O=C(CCBr)N1CCN(C(=O)CCBr)CC1 [Pipobroman] (100 nM) | 106
CC(C)N(CCCNC(=O)Nc1ccc(C(C)(C)C)cc1)C[C@H]1O[C@@H](n2cc(Br)c3c(N)ncnc32)[C@H](O)[C@@H]1O [SGC0946] (100 nM) | 96

system: Hs578T; test: as above; settings: incubation time: 72 h
Protocol: as §1

SMILES | normalised response [%]
Cc1c(Cn2c(C)nc3c(C(=O)O)cc(N4CCOCC4)cc32)cccc1C(F)(F)F (100 nM) | 101
CCCCC/C=C/C=C1/C(=O)C=C[C@@H]1C/C=C\CCCC(=O)O [15D-PGJ2] (8 nM) | 96.9
CC(=O)OC[C@H]1O[C@@H]([S-])[C@H](OC(C)=O)[C@@H](OC(C)=O)[C@@H]1OC(C)=O.CCP(CC)CC.[Au+] [Auranofin] (25 nM) | 103
Cc1c(CN2CCN(C(=O)[C@H](C)O)CC2)sc2c(N3CCOCC3)nc(-c3cnc(N)nc3)nc12 [GDC-0980] (100 nM) | 86.2
Cc1cccc(-c2nn3c(c2-c2ccnc4ccc(C(N)=O)cc24)CCC3)n1 [Galunisertib] (10 nM) | 103
O=C1c2c(O)ccc(O)c2C(=O)c2c(NCCNCCO)ccc(NCCNCCO)c21 [Mitoxantrone] (10 nM) | 102
COc1nc(N)nc2c1ncn2[C@@H]1O[C@H](CO)[C@@H](O)[C@@H]1O [Nelarabine] (100 nM) | 87.1
O=C(CCBr)N1CCN(C(=O)CCBr)CC1 [Pipobroman] (100 nM) | 105
CC(C)N(CCCNC(=O)Nc1ccc(C(C)(C)C)cc1)C[C@H]1O[C@@H](n2cc(Br)c3c(N)ncnc32)[C@H](O)[C@@H]1O [SGC0946] (100 nM) | 88.5

system: MDA-MB-468; test: as above; settings: incubation time: 72 h
Protocol: as §1

SMILES | normalised response [%]
Cc1c(Cn2c(C)nc3c(C(=O)O)cc(N4CCOCC4)cc32)cccc1C(F)(F)F (100 nM) | 89.2
CCCCC/C=C/C=C1/C(=O)C=C[C@@H]1C/C=C\CCCC(=O)O [15D-PGJ2] (8 nM) | 94
CC(=O)OC[C@H]1O[C@@H]([S-])[C@H](OC(C)=O)[C@@H](OC(C)=O)[C@@H]1OC(C)=O.CCP(CC)CC.[Au+] [Auranofin] (25 nM) | 103
Cc1c(CN2CCN(C(=O)[C@H](C)O)CC2)sc2c(N3CCOCC3)nc(-c3cnc(N)nc3)nc12 [GDC-0980] (100 nM) | 95.9
Cc1cccc(-c2nn3c(c2-c2ccnc4ccc(C(N)=O)cc24)CCC3)n1 [Galunisertib] (10 nM) | 107
O=C1c2c(O)ccc(O)c2C(=O)c2c(NCCNCCO)ccc(NCCNCCO)c21 [Mitoxantrone] (10 nM) | 95.6
COc1nc(N)nc2c1ncn2[C@@H]1O[C@H](CO)[C@@H](O)[C@@H]1O [Nelarabine] (100 nM) | 95.6
O=C(CCBr)N1CCN(C(=O)CCBr)CC1 [Pipobroman] (100 nM) | 102
CC(C)N(CCCNC(=O)Nc1ccc(C(C)(C)C)cc1)C[C@H]1O[C@@H](n2cc(Br)c3c(N)ncnc32)[C@H](O)[C@@H]1O [SGC0946] (100 nM) | 93.8

system: MDA-MB-231; test: as above; settings: incubation time: 72 h
Protocol: as §1

SMILES | normalised response [%]
Cc1c(Cn2c(C)nc3c(C(=O)O)cc(N4CCOCC4)cc32)cccc1C(F)(F)F (100 nM) | 104
CCCCC/C=C/C=C1/C(=O)C=C[C@@H]1C/C=C\CCCC(=O)O [15D-PGJ2] (8 nM) | 107
CC(=O)OC[C@H]1O[C@@H]([S-])[C@H](OC(C)=O)[C@@H](OC(C)=O)[C@@H]1OC(C)=O.CCP(CC)CC.[Au+] [Auranofin] (25 nM) | 103
Cc1c(CN2CCN(C(=O)[C@H](C)O)CC2)sc2c(N3CCOCC3)nc(-c3cnc(N)nc3)nc12 [GDC-0980] (100 nM) | 97.1
Cc1cccc(-c2nn3c(c2-c2ccnc4ccc(C(N)=O)cc24)CCC3)n1 [Galunisertib] (10 nM) | 113
O=C1c2c(O)ccc(O)c2C(=O)c2c(NCCNCCO)ccc(NCCNCCO)c21 [Mitoxantrone] (10 nM) | 99.8
COc1nc(N)nc2c1ncn2[C@@H]1O[C@H](CO)[C@@H](O)[C@@H]1O [Nelarabine] (100 nM) | 94.2
O=C(CCBr)N1CCN(C(=O)CCBr)CC1 [Pipobroman] (100 nM) | 105
CC(C)N(CCCNC(=O)Nc1ccc(C(C)(C)C)cc1)C[C@H]1O[C@@H](n2cc(Br)c3c(N)ncnc32)[C@H](O)[C@@H]1O [SGC0946] (100 nM) | 96

system: BT-474; test: as above; settings: incubation time: 72 h
Protocol: as §1

SMILES | normalised response [%]
Cc1c(Cn2c(C)nc3c(C(=O)O)cc(N4CCOCC4)cc32)cccc1C(F)(F)F (100 nM) | 97.2
CCCCC/C=C/C=C1/C(=O)C=C[C@@H]1C/C=C\CCCC(=O)O [15D-PGJ2] (8 nM) | 98.7
CC(=O)OC[C@H]1O[C@@H]([S-])[C@H](OC(C)=O)[C@@H](OC(C)=O)[C@@H]1OC(C)=O.CCP(CC)CC.[Au+] [Auranofin] (25 nM) | 96.8
Cc1c(CN2CCN(C(=O)[C@H](C)O)CC2)sc2c(N3CCOCC3)nc(-c3cnc(N)nc3)nc12 [GDC-0980] (100 nM) | 93.5
Cc1cccc(-c2nn3c(c2-c2ccnc4ccc(C(N)=O)cc24)CCC3)n1 [Galunisertib] (10 nM) | 108
O=C1c2c(O)ccc(O)c2C(=O)c2c(NCCNCCO)ccc(NCCNCCO)c21 [Mitoxantrone] (10 nM) | 96.1
